Each compound was assayed on KMS.12.BM cells (assay: KMS.12.BM Cell Viability Assay (Example B1)). Details: Homo sapiens, 72 h, 3 days, Cell Titer-GLO, read-out: KMS cellular IC50.
Assay type: cell-based, human
Description: KMS.12.BM cell line (human myeloma) was purchased from JCRB (Osaka, Japan) and maintained in RPMI with 10% FBS culture medium. To measure the cytotoxic activity of the compounds through ATP quantitation, the KMS.12.BM cells are plated in the RPMI culture medium at 5000 cells/well/per 100 μL into a 96-well polystyrene clear black tissue culture plate (Greiner-bio-one through VWR, NJ), in the presence or absence of a concentration range of test compounds. After 3 days, […] Cell Titer-GLO Luminescent (Promega, Madison, Wis.) cell culture agent is added to each well for 10 min. at room temperature to stabilize the luminescent signal. This determines the number of viable cells in culture based on quantitation of the ATP present, which signals the presence of metabolically active cells.
In the case of `Cc1noc(C)c1-c1ccc2nc(N3CCN(S(N)(=O)=O)CC3)n3c2c1OC[C@@H]3c1ccccn1` [Example 229, 4-[(4S)-7-(3,5-dimethylisoxazol-4-yl)-4-pyridin-2-yl-4,5-dihydroimidazo[1,5,4-de][1,4]benzoxazin-2-yl]piperazine-1-sulfonamide], the IC50 is reported as less than 1 µM.
For `Cc1noc(C)c1-c1ccc2nc(N3CC[C@@H](N(C)C)C3)n3c2c1OC[C@@H]3c1ccccn1` [Example 180A, (3R)-1-[(4S)-7-(3,5-dimethylisoxazol-4-yl)-4-pyridin-2-yl-4,5-dihydroimidazo[1,5,4-de][1,4]benzoxazin-2-yl]-N,N-dimethylpyrrolidin-3-amine], the IC50 was less than 1 µM.
`Cc1noc(C)c1-c1cc(F)c2nc(N(C)C)n3c2c1OCC3c1cccnc1` (stereo not drawn) [Example 156, 7-(3,5-Dimethylisoxazol-4-yl)-9-fluoro-N,N-dimethyl-4-pyridin-3-yl-4,5-dihydroimidazo[1,5,4-de][1,4]benzoxazin-2-amine] showed an IC50 of less than 1 µM.
`Cc1noc(C)c1-c1cc(C#N)c2[nH]c(=O)n3c2c1OCC3c1ccccc1` (stereo not drawn) [Example 42, 7-(3,5-Dimethylisoxazol-4-yl)-2-oxo-4-phenyl-1,2,4,5-tetrahydroimidazo[1,5,4-de][1,4]benzoxazine-9-carbonitrile] gave an IC50 of less than 1 µM.
Compound `Cc1noc(C)c1-c1ccc2nc(N3CCN(C(C)C)CC3)n3c2c1OC[C@@H]3c1ccccn1` [Example 174, (4S)-7-(3,5-dimethylisoxazol-4-yl)-2-(4-isopropylpiperazin-1-yl)-4-pyridin-2-yl-4,5-dihydroimidazo[1,5,4-de][1,4]benzoxazine] has an IC50 of less than 1 µM.
Compound `Cc1noc(C)c1-c1ccc2nc(N3CCOCC3)n3c2c1OCC3c1ccccc1` (stereo not drawn) [Example 53, 7-(3,5-Dimethylisoxazol-4-yl)-2-morpholin-4-yl-4-phenyl-4,5-dihydroimidazo[1,5,4-de][1,4]benzoxazine] has an IC50 of less than 1 µM.
With `Cc1noc(C)c1-c1ccc2nc(N3CC[C@@H](NC(=O)C4CC4)C3)n3c2c1OC[C@@H]3c1ccccn1` [Example 206, N-{(3R)-1-[(4S)-7-(3,5-dimethylisoxazol-4-yl)-4-pyridin-2-yl-4,5-dihydroimidazo[1,5,4-de][1,4]benzoxazin-2-yl]pyrrolidin-3-yl}cyclopropanecarboxamide] the IC50 was less than 1 µM.
In the case of `Cc1noc(C)c1-c1ccc2nc([C@@H](O)CO)n3c2c1OC[C@@H]3c1ccccn1` [Example 89, (1R)-1-[(4S)-7-(3,5-Dimethylisoxazol-4-yl)-4-pyridin-2-yl-4,5-dihydroimidazo[1,5,4-de][1,4]benzoxazin-2-yl]ethane-1,2-diol], the IC50 is reported as less than 1 µM.
`Cc1noc(C)c1-c1ccc2nc(N3CCOCC3)n3c2c1OC[C@@H]3c1ccccn1` [Example 161, (4S)-7-(3,5-dimethylisoxazol-4-yl)-2-morpholin-4-yl-4-pyridin-2-yl-4,5-dihydroimidazo[1,5,4-de][1,4]benzoxazine] gave an IC50 of less than 1 µM.
`CC(=O)N1CCN(c2nc3ccc(-c4c(C)noc4C)c4c3n2[C@@H](c2ccccn2)CO4)CC1` [Example 224, (4S)-2-(4-acetylpiperazin-1-yl)-7-(3,5-dimethylisoxazol-4-yl)-4-pyridin-2-yl-4,5-dihydroimidazo[1,5,4-de][1,4]benzoxazine] was tested, and the IC50 was less than 1 µM.

Same assay, conditions: Homo sapiens, KMS-12-BM, 72 h, 3 days, Cell Titer-GLO, read-out: KMS cellular IC50
With `Cc1noc(C)c1-c1cc(-c2ccc(O)nc2)c2[nH]c(=O)n3c2c1OC[C@@H]3c1ccccn1` [Example 259, (4S)-7-(3,5-dimethylisoxazol-4-yl)-9-(6-hydroxypyridin-3-yl)-4-pyridin-2-yl-4,5-dihydroimidazo[1,5,4-de][1,4]benzoxazin-2(1H)-one] the IC50 was 1 to 10 µM.
`Cc1noc(C)c1-c1ccc2nc(N3CCC(C)(O)C3)n3c2c1OC[C@@H]3c1ccccn1` (mixture of isomers) [Example 146C, 1-[(4S)-7-(3,5-Dimethylisoxazol-4-yl)-4-pyridin-2-yl-4,5-dihydroimidazo[1,5,4-de][1,4]benzoxazin-2-yl]-3-methylpyrrolidin-3-ol] was tested, and the IC50 was less than 1 µM.
